Test results reported in PubChem BioAssay AID2060892 (Molecular Pharmacology Branch, DTP, NCI, 2025).

Test system: HOP-62 complex spheroids with HUVEC/MSC, viability
Experiment: Anticancer human tumor HOP-62 cell line growth inhibition [RAS];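 note: spheroids exposed to agents for seven days before readout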;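 for viability, T/C: 100% = DMSO vehicle control viability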
Settings: for IC50: curve of first compound; for viability, T/C: stronger effect = lower value
How it was run: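 Multi-cell-type spheroids: tumor cells plus HUVEC endothelial cells and mesenchymal stem cells. RAS-pathway inhibitors were combined with targeted agents, each dosed in half-log steps down from clinical Cmax, or from 10 microM when Cmax was unknown.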

[1] = second compound 0.00316 µM, first compound 0.000949 µM
[2] = second compound 0.00316 µM, first compound 0.003 µM
[3] = second compound 0.00316 µM, first compound 0.00949 µM
[4] = second compound 0.00316 µM, first compound 0.03 µM
[5] = second compound 0.00316 µM, first compound 0.0949 µM
[6] = second compound 0.00316 µM, first compound 0.3 µM
[7] = second compound 0.01 µM, first compound 0.000949 µM
[8] = second compound 0.01 µM, first compound 0.003 µM
[9] = second compound 0.01 µM, first compound 0.00949 µM
[10] = second compound 0.01 µM, first compound 0.03 µM
[11] = second compound 0.01 µM, first compound 0.0949 µM
[12] = second compound 0.01 µM, first compound 0.3 µM
[13] = second compound 0.0316 µM, first compound 0.000949 µM
[14] = second compound 0.0316 µM, first compound 0.003 µM
[15] = second compound 0.0316 µM, first compound 0.00949 µM
[16] = second compound 0.0316 µM, first compound 0.03 µM
[17] = second compound 0.0316 µM, first compound 0.0949 µM
[18] = second compound 0.0316 µM, first compound 0.3 µM
[19] = second compound 0.1 µM, first compound 0.000949 µM
[20] = second compound 0.1 µM, first compound 0.003 µM
[21] = second compound 0.1 µM, first compound 0.00949 µM
[22] = second compound 0.1 µM, first compound 0.03 µM
[23] = second compound 0.1 µM, first compound 0.0949 µM
[24] = second compound 0.1 µM, first compound 0.3 µM
[25] = second compound 0.316 µM, first compound 0.000949 µM
[26] = second compound 0.316 µM, first compound 0.003 µM
[27] = second compound 0.316 µM, first compound 0.00949 µM
[28] = second compound 0.316 µM, first compound 0.03 µM
[29] = second compound 0.316 µM, first compound 0.0949 µM
[30] = second compound 0.316 µM, first compound 0.3 µM
[31] = second compound 1 µM, first compound 0.000949 µM
[32] = second compound 1 µM, first compound 0.003 µM
[33] = second compound 1 µM, first compound 0.00949 µM
[34] = second compound 1 µM, first compound 0.03 µM
[35] = second compound 1 µM, first compound 0.0949 µM
[36] = second compound 1 µM, first compound 0.3 µM

Question: How did the IC50 (second compound 0.00316 µM) turn out when CC1(C)CCC(Nc2ncc(C(F)(F)F)c(-c3c[nH]c4c(P(C)(C)=O)c(C#N)ccc34)n2)CN1 (stereo unspecified) + C=CC(=O)N1CCN(c2nc(OCC3CCCN3C)nc3c(F)c(-c4nc(N)cc(C)c4C(F)(F)F)c(Cl)cc23)C(C)C1 was run?
Answer: < 0.949 nM

Question: And the IC50 (second compound 0.01 µM)?
Answer: 0.977 nM

Question: What about the IC50 (second compound 0.0316 µM) of the same compound?
Answer: < 0.949 nM

Question: What about the IC50 (second compound 0.1 µM) of the same compound?
Answer: < 0.949 nM

Question: What about the IC50 (second compound 0.316 µM) of the same compound?
Answer: < 0.949 nM

Question: What about the IC50 (second compound 1 µM) of the same compound?
Answer: 0.959 nM

Question: What about the viability, T/C [1] of the same compound?
Answer: 49.6%

Question: And the viability, T/C [2]?
Answer: 25%

Question: And the viability, T/C [3]?
Answer: 19.8%

Question: And the viability, T/C [4]?
Answer: 15.8%

Question: And the viability, T/C [5]?
Answer: 20.4%

Question: What about the viability, T/C [6] of the same compound?
Answer: 21.5%

Question: What about the viability, T/C [7] of the same compound?
Answer: 50.7%

Question: What about the viability, T/C [8] of the same compound?
Answer: 24%

Question: And the viability, T/C [9]?
Answer: 20.3%

Question: And the viability, T/C [10]?
Answer: 16.4%

Question: And the viability, T/C [11]?
Answer: 20%

Question: What about the viability, T/C [12] of the same compound?
Answer: 19.8%

Question: And the viability, T/C [13]?
Answer: 45.2%

Question: What about the viability, T/C [14] of the same compound?
Answer: 23.8%

Question: What about the viability, T/C [15] of the same compound?
Answer: 19.6%

Question: What about the viability, T/C [16] of the same compound?
Answer: 15.4%

Question: And the viability, T/C [17]?
Answer: 20.8%

Question: And the viability, T/C [18]?
Answer: 22.5%

Question: What about the viability, T/C [19] of the same compound?
Answer: 45.1%

Question: And the viability, T/C [20]?
Answer: 22.6%

Question: What about the viability, T/C [21] of the same compound?
Answer: 21.2%

Question: And the viability, T/C [22]?
Answer: 17.5%

Question: What about the viability, T/C [23] of the same compound?
Answer: 16%

Question: What about the viability, T/C [24] of the same compound?
Answer: 20%

Question: And the viability, T/C [25]?
Answer: 48.8%

Question: What about the viability, T/C [26] of the same compound?
Answer: 25.8%

Question: What about the viability, T/C [27] of the same compound?
Answer: 19.7%

Question: What about the viability, T/C [28] of the same compound?
Answer: 16.8%

Question: And the viability, T/C [29]?
Answer: 21.2%

Question: What about the viability, T/C [30] of the same compound?
Answer: 22.7%

Question: And the viability, T/C [31]?
Answer: 50.3%

Question: And the viability, T/C [32]?
Answer: 20.7%

Question: And the viability, T/C [33]?
Answer: 18.4%

Question: What about the viability, T/C [34] of the same compound?
Answer: 19.6%

Question: And the viability, T/C [35]?
Answer: 17.6%

Question: And the viability, T/C [36]?
Answer: 19.1%

Question: How did the IC50 (second compound 0.00316 µM) turn out when CCc1c2c(nc3ccc(O)cc13)-c1cc3c(c(=O)n1C2)COC(=O)[C@]3(O)CC + C=CC(=O)N1CCN(c2nc(OCC3CCCN3C)nc3c(F)c(-c4nc(N)cc(C)c4C(F)(F)F)c(Cl)cc23)C(C)C1 was run?
Answer: < 0.949 nM

Question: What about the IC50 (second compound 0.01 µM) of the same compound?
Answer: < 0.949 nM

Question: What about the IC50 (second compound 0.0316 µM) of the same compound?
Answer: < 0.949 nM

Question: What about the IC50 (second compound 0.1 µM) of the same compound?
Answer: < 0.949 nM

Question: And the IC50 (second compound 0.316 µM)?
Answer: < 0.949 nM

Question: What about the IC50 (second compound 1 µM) of the same compound?
Answer: < 0.949 nM

Question: And the viability, T/C [1]?
Answer: 46.5%

Question: What about the viability, T/C [2] of the same compound?
Answer: 11.8%

Question: What about the viability, T/C [3] of the same compound?
Answer: 6.88%

Question: And the viability, T/C [4]?
Answer: 3.96%

Question: What about the viability, T/C [5] of the same compound?
Answer: 2.91%

Question: What about the viability, T/C [6] of the same compound?
Answer: 4.33%

Question: And the viability, T/C [7]?
Answer: 47.3%

Question: What about the viability, T/C [8] of the same compound?
Answer: 11.6%

Question: And the viability, T/C [9]?
Answer: 6.73%

Question: And the viability, T/C [10]?
Answer: 4.31%

Question: What about the viability, T/C [11] of the same compound?
Answer: 3.65%

Question: What about the viability, T/C [12] of the same compound?
Answer: 2.46%

Question: And the viability, T/C [13]?
Answer: 42.5%

Question: And the viability, T/C [14]?
Answer: 9.52%

Question: What about the viability, T/C [15] of the same compound?
Answer: 5.4%

Question: And the viability, T/C [16]?
Answer: 3.77%

Question: And the viability, T/C [17]?
Answer: 2.66%

Question: And the viability, T/C [18]?
Answer: 2.57%

Question: And the viability, T/C [19]?
Answer: 47.7%

Question: And the viability, T/C [20]?
Answer: 10.1%

Question: And the viability, T/C [21]?
Answer: 6.42%

Question: What about the viability, T/C [22] of the same compound?
Answer: 3.2%

Question: And the viability, T/C [23]?
Answer: 3.67%

Question: What about the viability, T/C [24] of the same compound?
Answer: 2.48%

Question: And the viability, T/C [25]?
Answer: 40.5%

Question: And the viability, T/C [26]?
Answer: 10.3%

Question: And the viability, T/C [27]?
Answer: 8.01%

Question: What about the viability, T/C [28] of the same compound?
Answer: 5.51%

Question: What about the viability, T/C [29] of the same compound?
Answer: 4.05%

Question: And the viability, T/C [30]?
Answer: 2.72%

Question: And the viability, T/C [31]?
Answer: 43.2%

Question: And the viability, T/C [32]?
Answer: 12.4%

Question: What about the viability, T/C [33] of the same compound?
Answer: 6.37%

Question: And the viability, T/C [34]?
Answer: 4.48%

Question: What about the viability, T/C [35] of the same compound?
Answer: 2.92%

Question: What about the viability, T/C [36] of the same compound?
Answer: 2.71%

Question: Which results are given for C=CC(=O)Nc1cc(Nc2nccc(-c3cn(C)c4ccccc34)n2)c(OC)cc1N(C)CCN(C)C + CCn1c(-c2cc(N3CCN(C)CC3)cnc2C(C)OC)c2c3cc(ccc31)-c1csc(n1)CC(NC(=O)C1CC1C)C(=O)N1CCCC(N1)C(=O)OCC(C)(C)C2?
Answer: IC50 (second compound 0.000949 µM): > 1000 nM; IC50 (second compound 0.003 µM): 688 nM; IC50 (second compound 0.00949 µM): 278 nM; IC50 (second compound 0.03 µM): 6.38 nM; IC50 (second compound 0.0949 µM): < 3.16 nM; IC50 (second compound 0.3 µM): < 3.16 nM; viability, T/C (second compound 0.000949 µM, first compound 0.00316 µM): 119%; viability, T/C (second compound 0.000949 µM, first compound 0.01 µM): 114%; viability, T/C (second compound 0.000949 µM, first compound 0.0316 µM): 85.8%; viability, T/C (second compound 0.000949 µM, first compound 0.1 µM): 120%; viability, T/C (second compound 0.000949 µM, first compound 0.316 µM): 106%; viability, T/C (second compound 0.000949 µM, first compound 1 µM): 66.4%; viability, T/C (second compound 0.003 µM, first compound 0.00316 µM): 97.4%; viability, T/C (second compound 0.003 µM, first compound 0.01 µM): 88.6%; viability, T/C (second compound 0.003 µM, first compound 0.0316 µM): 74.4%; viability, T/C (second compound 0.003 µM, first compound 0.1 µM): 89.5%; viability, T/C (second compound 0.003 µM, first compound 0.316 µM): 75.9%; viability, T/C (second compound 0.003 µM, first compound 1 µM): 37.4%; viability, T/C (second compound 0.00949 µM, first compound 0.00316 µM): 76.6%; viability, T/C (second compound 0.00949 µM, first compound 0.01 µM): 62.5%; viability, T/C (second compound 0.00949 µM, first compound 0.0316 µM): 59.7%; viability, T/C (second compound 0.00949 µM, first compound 0.1 µM): 66.5%; viability, T/C (second compound 0.00949 µM, first compound 0.316 µM): 47.3%; viability, T/C (second compound 0.00949 µM, first compound 1 µM): 33.2%; viability, T/C (second compound 0.03 µM, first compound 0.00316 µM): 52%; viability, T/C (second compound 0.03 µM, first compound 0.01 µM): 49.2%; viability, T/C (second compound 0.03 µM, first compound 0.0316 µM): 42.7%; viability, T/C (second compound 0.03 µM, first compound 0.1 µM): 43.3%; viability, T/C (second compound 0.03 µM, first compound 0.316 µM): 26.6%; viability, T/C (second compound 0.03 µM, first compound 1 µM): 30.1%; viability, T/C (second compound 0.0949 µM, first compound 0.00316 µM): 40.2%; viability, T/C (second compound 0.0949 µM, first compound 0.01 µM): 44.1%; viability, T/C (second compound 0.0949 µM, first compound 0.0316 µM): 33.8%; viability, T/C (second compound 0.0949 µM, first compound 0.1 µM): 32.1%; viability, T/C (second compound 0.0949 µM, first compound 0.316 µM): 26.4%; viability, T/C (second compound 0.0949 µM, first compound 1 µM): 24%; viability, T/C (second compound 0.3 µM, first compound 0.00316 µM): 42.1%; viability, T/C (second compound 0.3 µM, first compound 0.01 µM): 35.6%; viability, T/C (second compound 0.3 µM, first compound 0.0316 µM): 37.4%; viability, T/C (second compound 0.3 µM, first compound 0.1 µM): 33.7%; viability, T/C (second compound 0.3 µM, first compound 0.316 µM): 22.9%; viability, T/C (second compound 0.3 µM, first compound 1 µM): 22.7%
